# Assay results: patent US11230526B1, “Cylcoalkenyl derivatives useful as agonists of the GPR120 and/or GPR40 receptors” (Janssen Pharmaceutica NV, priority 2018, dated 2022)
# Experiments:
# [1] = molecular target: T1, Human GPR120 short form (Homo sapiens, UniProt Q5NUL3); assay: Human GPR120 calcium flux assay, Procedure Calcium B (4200 cells/well); type: cell-based
# T1 construct: expressed in transfected cells
# T1 sequence (Q5NUL3 1-361): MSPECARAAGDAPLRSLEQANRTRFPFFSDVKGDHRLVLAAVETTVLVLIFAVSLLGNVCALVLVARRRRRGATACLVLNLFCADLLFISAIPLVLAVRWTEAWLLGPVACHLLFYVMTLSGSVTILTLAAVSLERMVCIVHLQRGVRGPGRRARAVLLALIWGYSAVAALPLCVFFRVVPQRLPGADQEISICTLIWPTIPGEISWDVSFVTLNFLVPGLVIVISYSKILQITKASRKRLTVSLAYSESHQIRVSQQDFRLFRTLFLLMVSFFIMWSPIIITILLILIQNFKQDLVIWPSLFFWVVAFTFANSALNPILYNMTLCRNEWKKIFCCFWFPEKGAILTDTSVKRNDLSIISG
# Procedure, shortened: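 HEK293 cells stably expressing human GPR120 (NM_001195755.1), 4200 cells/well, starved 1 h and loaded with Fluo-4 NW plus probenecid. Ligand-evoked calcium flux read on FLIPR for 300 s after a 10 s baseline. RFU = Fmax−Fmin; EC50 from four-parameter concentration-response fit.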
# [2] = molecular target: T2, human GPR40 (Homo sapiens, UniProt O14842); assay: GPR40 calcium flux assay, human GPR40; type: cell-based; details: HEK293 cells stably expressing GPR40; table does not say human or rat
# T2 construct: expressed in transfected cells
# T2 sequence (O14842 whole entry): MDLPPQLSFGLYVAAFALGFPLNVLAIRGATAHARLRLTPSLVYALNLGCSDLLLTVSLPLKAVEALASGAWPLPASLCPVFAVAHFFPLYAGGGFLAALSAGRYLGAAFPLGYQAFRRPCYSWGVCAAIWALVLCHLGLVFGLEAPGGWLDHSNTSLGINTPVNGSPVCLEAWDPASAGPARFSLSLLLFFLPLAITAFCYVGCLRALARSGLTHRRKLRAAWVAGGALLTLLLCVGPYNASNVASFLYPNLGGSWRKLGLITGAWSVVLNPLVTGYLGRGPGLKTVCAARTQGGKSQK
# Procedure, shortened: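 Cells preincubated 1 h at 37° C. in HBSS, 20 mM HEPES, 0.1% BSA, then Fluo 8 calcium dye 30 min at 37° C. and 15 min at room temperature.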
SMILES,EC50 [1],EC50 [2]
"C#Cc1cc(OCC2=C(C3CCCC3)CCC2)ccc1CCC(=O)O [Compound 454, 3-[4-[(2-cyclopentylcyclopenten-1-yl)methoxy]-2-ethynyl-phenyl]Propanoic Acid]",2250 nM,513 nM
"CCC1CCCC(COc2ccc(CCC(=O)O)c(C)c2C)=C1c1ccc(Cl)cc1 (centres unmarked) [Compound 478, 3-[4-[[2-(4-chlorophenyl)-3-ethyl-cyclohexen-1-yl]methoxy]-2,3-dimethyl-phenyl]Propanoic Acid]",> 5000 nM,> 5000 nM
"Cc1c(CCC(=O)O)ccc(OCC2=C(c3ccc(Cl)cc3)CC(C(C)C)CC2)c1C (centres unmarked) [Compound 500, 3-[4-[[2-(4-chlorophenyl)-4-isopropyl-cyclohexen-1-yl]methoxy]-2,3-dimethyl-phenyl]Propanoic Acid]",1530 nM,> 5000 nM
"Cc1c(CCC(=O)O)ccc(OCC2=C(c3ccc(Cl)cc3)C(C(C)C)CCC2)c1C (centres unmarked) [Compound 523, 3-[4-[[2-(4-chlorophenyl)-3-isopropyl-cyclohexen-1-yl]methoxy]-2,3-dimethyl-phenyl]Propanoic Acid]",> 5000 nM,> 5000 nM
"Cc1c(CCC(=O)O)ccc(OCC2=C(c3ccc(Cl)cc3)CCC(C)(C)C2)c1C [Compound 541, 3-[4-[[2-(4-chlorophenyl)-5,5-dimethyl-cyclohexen-1-yl]methoxy]-2,3-dimethyl-phenyl]Propanoic Acid]",1500 nM,4760 nM
Cn1cc(C2=C(COc3c(F)cc(CCC(=O)O)cc3F)CC(F)(F)CC2)cn1 [Compound 544],1350 nM,> 5000 nM
"COC1CCC(c2ccc(C)cc2)=C(COc2ccc(CCC(=O)O)cc2)C1 (centres unmarked) [Compound 574, 3-[4-[[5-methoxy-2-(p-tolyl)cyclohexen-1-yl]methoxy]phenyl]Propanoic Acid]",2130 nM,4410 nM
"COC1CCC(c2ccccc2C)=C(COc2ccc(CCC(=O)O)cc2)C1 (centres unmarked) [Compound 575, 3-[4-[[5-methoxy-2-(o-tolyl)cyclohexen-1-yl]methoxy]phenyl]Propanoic Acid]",> 5000 nM,> 5000 nM
"COC1CCC(c2ccccc2C)=C(COc2ccc(CCC(=O)O)c(C(F)(F)F)c2)C1 (centres unmarked) [Compound 576, 3-[4-[[5-methoxy-2-(o-tolyl)cyclohexen-1-yl]methoxy]-2-(trifluoromethyl)phenyl]Propanoic Acid]",> 5000 nM,1570 nM
"CC(C)CC1=C(COc2ccc(CCC(=O)O)cc2)CCCC1 [Compound 578, 3-[4-[(2-isobutylcyclohexen-1-yl)methoxy]phenyl]Propanoic Acid]",1780 nM,2140 nM
"CC(C)CC1=C(COc2ccc(CCC(=O)O)c(Cl)c2)CCCC1 [Compound 580, 3-[2-chloro-4-[(2-isobutylcyclohexen-1-yl)methoxy]phenyl]Propanoic Acid]",1330 nM,202 nM
"O=C(O)CCc1ccc(OCC2=C(Cc3ccccc3)CCCC2)cc1 [Compound 581, 3-[4-[(2-benzylcyclohexen-1-yl)methoxy]phenyl]Propanoic Acid]",2110 nM,591 nM
"CC(C)C1=C(COc2ccc(CCC(=O)O)cc2)CCCC1 [Compound 585, 3-[4-[(2-isopropylcyclohexen-1-yl)methoxy]phenyl]Propanoic Acid]",1650 nM,2420 nM

# These reach a lower EC50 [1]. Values come first.
EC50 [1],EC50 [2],SMILES
273 nM,118 nM,"O=C(O)CCc1cc(F)c(OCC2=C(C3CCCC3)CCC2)cc1Cl [Compound 450, 3-[2-chloro-4-[(2-cyclopentylcyclopenten-1-yl)methoxy]-5-fluoro-phenyl]Propanoic Acid]"
249 nM,32 nM,"O=C(O)CCc1ccc(OCC2=C(C3C=CCC3)CCC2)cc1Cl (centres unmarked) [Compound 451, 3-[2-chloro-4-[(2-cyclopent-2-en-1-ylcyclopenten-1-yl)methoxy]phenyl]Propanoic Acid]"
127 nM,170 nM,"O=C(O)CCc1ccc(OCC2=C(C3C=CCC3)CCC2)cc1 (centres unmarked) [Compound 452, 3-[4-[(2-cyclopent-2-en-1-ylcyclopenten-1-yl)methoxy]phenyl]Propanoic Acid]"
181 nM,10 nM,"O=C(O)CCc1ccc(OCC2=C(C3C=CCC3)CCC2)cc1C(F)(F)F (centres unmarked) [Compound 453, 3-[4-[(2-cyclopent-2-en-1-ylcyclopenten-1-yl)methoxy]-2-(trifluoromethyl)phenyl]Propanoic Acid]"
340 nM,403 nM,"O=C(O)CCc1ccc(OCC2=C(C3CCC4CC43)CCC2)cc1 (centres unmarked) [Compound 455, 3-[4-[[2-(4-bicyclo[3.1.0]hexanyl)cyclopenten-1-yl]methoxy]phenyl]Propanoic Acid]"
924 nM,42 nM,"O=C(O)CCc1ccc(OCC2=C(C3CCC4CC43)CCC2)cc1C(F)(F)F (centres unmarked) [Compound 456, 3-[4-[[2-(4-bicyclo[3.1.0]hexanyl)cyclopenten-1-yl]methoxy]-2-(trifluoromethyl)phenyl]Propanoic Acid]"
126 nM,46 nM,"O=C(O)CCc1ccc(OCC2=C(C3CCCC3)CC(F)(F)C2)cc1F [Compound 457, 3-[4-[(2-cyclopentyl-4,4-difluoro-cyclopenten-1-yl)methoxy]-2-fluoro-phenyl]Propanoic Acid]"
1100 nM,3010 nM,"COC1CCC(c2ccc(C)cc2)=C(COc2ccc(CCC(=O)O)c(C(F)(F)F)c2)C1 (centres unmarked) [Compound 577, 3-[4-[[5-methoxy-2-(p-tolyl)cyclohexen-1-yl]methoxy]-2-(trifluoromethyl)phenyl]Propanoic Acid]"
585 nM,75 nM,"CC(C)CC1=C(COc2ccc(CCC(=O)O)c(C(F)(F)F)c2)CCCC1 [Compound 579, 3-[4-[(2-isobutylcyclohexen-1-yl)methoxy]-2-(trifluoromethyl)phenyl]Propanoic Acid]"
1210 nM,77 nM,"O=C(O)CCc1ccc(OCC2=C(Cc3ccccc3)CCCC2)cc1Cl [Compound 582, 3-[4-[(2-benzylcyclohexen-1-yl)methoxy]-2-chloro-phenyl]Propanoic Acid]"
765 nM,294 nM,"CCCCC1=C(COc2ccc(CCC(=O)O)c(Cl)c2)CCCC1 [Compound 583, 3-[4-[(2-butylcyclohexen-1-yl)methoxy]-2-chloro-phenyl]Propanoic Acid]"
756 nM,91 nM,"O=C(O)CCc1ccc(OCC2=C(Cc3ccccc3)CCCC2)cc1C(F)(F)F [Compound 584, 3-[4-[(2-benzylcyclohexen-1-yl)methoxy]-2-(trifluoromethyl)phenyl]Propanoic Acid]"
908 nM,52 nM,"CC(C)C1=C(COc2ccc(CCC(=O)O)c(C(F)(F)F)c2)CCCC1 [Compound 586, 3-[4-[(2-isopropylcyclohexen-1-yl)methoxy]-2-(trifluoromethyl)phenyl]Propanoic Acid]"
1140 nM,99 nM,"CC(C)C1=C(COc2ccc(CCC(=O)O)c(Cl)c2)CCCC1 [Compound 587, 3-[2-chloro-4-[(2-isopropylcyclohexen-1-yl)methoxy]phenyl]Propanoic Acid]"
1140 nM,1920 nM,"CCCCC1=C(COc2ccc(CCC(=O)O)cc2)CCCC1 [Compound 588, 3-[4-[(2-butylcyclohexen-1-yl)methoxy]phenyl]Propanoic Acid]"
